Earlier results on 5 compounds are cited in paper PMC8819907 (Journal of Experimental & Clinical Cancer Research : CR, 2022).

The subject of data set [1] is patients with advanced solid tumors. Also noted: method as in ref 27 (a number printed in a supplementary file, which may have a reference list of its own: not looked up in the article's list). To be noted: cited from earlier work.
For data set [2] the following is noted: only detectable minor component in blood; cited from earlier work.
Details of data set [3]: method as in PMID 32696585. As to conditions: cited from earlier work.
A further data set concerns KRAS-mutant NSCLC. Also noted: method as in ref 24 (a number printed in a supplementary file, which may have a reference list of its own: not looked up in the article's list). As to conditions: cited from earlier work.
The subject of data set [4] is recurrent low-grade serous carcinoma of the ovary or peritoneum. Also noted: method as in ref 33,34 (a number printed in a supplementary file, which may have a reference list of its own: not looked up in the article's list). As to conditions: 8/52 patients; cited from earlier work.
Data set [5] deals with metastatic biliary tract cancers. Further details: method as in ref 33,34 (a number printed in a supplementary file, which may have a reference list of its own: not looked up in the article's list). To be noted: 3/25 response evaluable patients; cited from earlier work.

Where only a bound is given, the exact number is not on record here.

In the case of `Cn1ncc(Cl)c1-c1cc(C(=O)N[C@H](CN)Cc2ccc(F)c(F)c2)oc1Cl` [GSK2141795], the “RP2D for single agent” value in data set [1] was 75 mg/day.

In the case of `Cc1c(=O)n(C)c(Nc2ccc(I)cc2F)c2c(=O)n(C3CC3)c(=O)n(-c3cccc(N)c3)c12` [M5], in data set [2], the “share of the blood radioactivity” value was less than 7%.

As for `O=C(c1ccc(F)c(F)c1Nc1ccc(I)cc1F)N1CC(O)([C@@H]2CCCCN2)C1` [cobimetinib], in data set [3], the “total AUC0−∞ lower, severe hepatic impairment vs normal hepatic function” value is reported as roughly 30% and the “unbound AUC0−∞ higher, severe hepatic impairment vs normal hepatic function” value is roughly 2 fold.

As to `CC(=O)O[C@@]12CO[C@@H]1C[C@H](O)[C@@]1(C)C(=O)[C@H](O)C3=C(C)[C@@H](OC(=O)[C@H](O)[C@@H](NC(=O)OC(C)(C)C)c4ccccc4)C[C@@](O)([C@@H](OC(=O)c4ccccc4)[C@H]21)C3(C)C` [docetaxel], in the data set on KRAS-mutant NSCLC, the “median PFS” value is 11.4 weeks and the “overall response rate (ORR)” value was 12%.

Take `Cn1cnc2c(F)c(Nc3ccc(Br)cc3Cl)c(C(=O)NOCCO)cc21` [selumetinib]: the overall response rate in data set [4] is 15%; in data set [5] it was 12%.
